{
  "source": "patent US6555566B2",
  "about": "“Methods and materials for treating and preventing inflammation of mucosal tissue” (Mayo Foundation for Medical Education and Research, priority 1997, dated 2003)",
  "key": {"[1]": {"test_system": "non-invasive fungus-induced rhinosinusitis patients", "assay": "Amphotericin B nasal irrigation study, three month follow-up of 53 patients", "type": "in vivo, human", "from_the_text": "In addition to patient interviewing, CT scan analysis, visual examination, and fungal culture analysis, two types of evaluations were used to score the success of the treatment: an endoscopic evaluation and a patient symptom evaluation."}, "[2]": {"test_system": "non-invasive fungus-induced rhinosinusitis patients", "assay": "Amphotericin B irrigations in patients without previous nasal surgery", "type": "in vivo, human", "from_the_text": "A person was diagnosed with non-invasive fungus-induced rhinosinusitis and instructed to perform amphotericin B irrigations twice a day.\nA person was diagnosed with non-invasive fungus-induced rhinosinusitis and instructed to perform amphotericin B irrigations twice a day, which was later increased to four times a day.\nA person was diagnosed with non-invasive fungus-induced rhinosinusitis and instructed to perform amphotericin B irrigations twice a day. This patient had been given intramuscular steroid shots every 3 to 8 months with the last shot being administered about seven months prior to starting the amphotericin B irrigations."}, "chronic asthma patients": {"test_system": "chronic asthma patients", "assay": "Chronic asthma symptoms in patients of the amphotericin B irrigation study", "experimental": "One hundred and thirty-two consecutive rhinosinusitis patients were entered into a study to evaluate the use of an antifungal agent to treat non-invasive fungus-induced rhinosinusitis. […] The 125 non-invasive fungus-induced rhinosinusitis patients were started on an antifungal treatment of about 20 mL of an amphotericin B solution per nostril, two to four times daily for at least three months. The concentration of the amphotericin B solution was about 100 mg per liter of saline or water. A 20 mL bulb was used by the patient to mucoadminister the amphotericin B solution into the patient's nasal-paranasal anatomy. Data were compiled for 53 of the patients who had returned for their three month follow-up analysis."}, "rhinosinusitis patient": {"test_system": "rhinosinusitis patient", "assay": "Single patient, one-sided then two-sided amphotericin B irrigation with surgery, RAST to Alternaria", "experimental": "Only the left nasal-paranasal side, however, received surgery as well as intra-operative and post-operative treatment with about 20 mL of an amphotericin B solution (100 mg/L) two to four times daily."}, "[3]": {"test_system": "non-invasive fungus-induced rhinosinusitis patients", "assay": "Itraconazole nasal irrigations in rhinosinusitis patients", "type": "in vivo, human", "parameters": "symptom score before itraconazole irrigations / symptom score after itraconazole irrigations / endoscopic score, right side, before / endoscopic score, right side, after / endoscopic score, left side, before / endoscopic score, left side, after: scale not given here", "procedure": "Three non-invasive fungus-induced rhinosinusitis patients (person, person, and person) were instructed to perform nasal irrigation with an itraconazole solution. The itraconazole solution contained about 100 mg of itraconazole per L of solution (10% PEG-400 in sterile water) and was prepared as described herein. […] Each patient reported marked improvement in symptoms within two weeks of starting the itraconazole irrigations (symptom scores: −1 to +2 and −1 to +1).\nAfter treatment with itraconazole, that patient reported symptom improvement (symptom score: from −1 to 0)."}, "[4]": {"test_system": "non-invasive fungus-induced rhinosinusitis patients", "assay": "Patient data collected during a one week period (amphotericin B nasal irrigations)", "type": "in vivo, human", "parameters": "Endoscopy Score B / Endoscopy Score A / Symptom Score B: scale not given here", "from_the_text": "Only previously seen patients that were instructed to use the antifungal amphotericin B nasal irrigations were entered into this study.\nDuring a one week period, twenty patients returned to the physician's office (Table II). The average age of the returning patients was 47 years (range 16-74 years). The patients were using the amphotericin B irrigations for an average duration of about six months (range 1-16 months). […] In addition, some patients were using topical and systemic steroid therapy. Further, some patients were using an antibiotic nasal irrigation in addition to the antifungal irrigations. The antibacterial solution contained 80 mg gentamicin per L saline (Wilson's solution). Some patients mixed the antibacterial solution with the antifungal solution and then performed the nasal irrigations while others used each solution separately in a sequential manner. Some patients also had other diseases including asthma (15 of the 20 patients) and colitis (2 of the 20 patients)."}, "[5]": {"test_system": "non-invasive fungus-induced rhinosinusitis patient", "assay": "Eosinophil count in mucosal biopsies after antifungal treatment", "type": "in vivo, human", "details": "after nine months of irrigations twice a day", "from_the_text": "A person was diagnosed with non-invasive fungus-induced rhinosinusitis and instructed to perform amphotericin B irrigations twice a day. After nine months of amphotericin B irrigations, the patient underwent sinus surgery for further improvement. During the surgery mucosal biopsies were collected and the eosinophil count compared to the those obtained from biopsies collected from the patient during a surgery prior to the antifungal treatment."}, "[6]": {"details": "after treatment, three month follow-up"}, "[7]": {"details": "after antifungal treatment, nasal irrigations 1-16 months, 1-2x day, one line per patient, r26 and r28 switched to itraconazole for the last month, r13 stopped 8 months earlier"}, "[8]": {"details": "before antifungal treatment (baseline), one line per patient"}, "[9]": {"details": "sixteen days after starting itraconazole irrigations, one patient"}},
  "note": "Where “and” joins values, the source holds several entries; their conditions need not be identical. Equal entries are not always repeated.",
  "data": [
    {"smiles": "C[C@@H]1[C@H](O)[C@@H](C)/C=C/C=C/C=C/C=C/C=C/C=C/C=C/[C@H](O[C@@H]2O[C@H](C)[C@@H](O)[C@H](N)[C@@H]2O)C[C@@H]2O[C@](O)(C[C@@H](O)C[C@@H](O)[C@H](O)CC[C@@H](O)C[C@@H](O)CC(=O)O[C@H]1C)C[C@H](O)[C@H]2C(=O)O", "note": "[amphotericin B]", "values": [
      {"measurement": "patients going from endoscopic evaluation stage 2 or 3 to stage 0", "setting": "[1]; after three months, about 20 mL of 100 mg/L solution per nostril, two to four times daily", "result": "33 of the 53"},
      {"measurement": "patients giving themselves symptom stage 0 (baseline/no change)", "setting": "[1]; [6]", "result": "six of the 53"},
      {"measurement": "patients giving themselves symptom stage 1 (good/improved)", "setting": "[1]; [6]", "result": "three of the 53"},
      {"measurement": "patients giving themselves symptom stage 2 (very good/free of symptoms)", "setting": "[1]; [6]", "result": "44 of the 53"},
      {"measurement": "patients that did not respond to the treatment (of 53)", "setting": "[1]; endoscopic evaluation after three months", "result": "nine"},
      {"measurement": "non-responding patients whose mucus fungal organisms were resistant to the agent", "setting": "[1]; five of the nine non-responders had mucus samples available", "result": "all five"},
      {"measurement": "CT scan finding after treatment", "setting": "[1]; one patient with bilateral rhinosinusitis, no recent surgery, no steroids, 20 mL of 100 mg/L per nostril two times daily, four months", "result": "complete disappearance of opacity and symptoms characteristic of rhinosinusitis"},
      {"measurement": "number of different fungal species in mucus after versus before treatment", "setting": "[1]; several patients, fungal organism culturing", "result": "remarkably reduced"},
      {"measurement": "symptom score before treatment", "setting": "[2]; baseline, no previous nasal surgery, one line per patient", "result": "−1"},
      {"measurement": "endoscopic score after treatment", "setting": "[2]; irrigations twice a day (b227 later four times a day) for fourteen, sixteen, four months", "result": 0},
      {"measurement": "patients no longer exhibiting asthma symptoms who stopped taking their asthma medication", "setting": "chronic asthma patients; after starting treatment", "result": "26 of the 28"},
      {"measurement": "asthmatic patients declaring improvement or complete elimination of asthma symptoms", "setting": "chronic asthma patients; after three months of nasal irrigation treatment of Example 2", "result": "28 of the 37"},
      {"measurement": "patients with improved pulmonary function test after versus before treatment", "setting": "chronic asthma patients; four of the 28 improved patients tested", "result": "all four"},
      {"measurement": "patients taking steroids after starting treatment", "setting": "chronic asthma patients; of twenty-three patients on systemic steroids for asthma before", "result": "none"},
      {"measurement": "RAST reading to Alternaria", "setting": "rhinosinusitis patient; after surgery on the right side and irrigation of both sides for about seven weeks", "result": 4.47, "unit": "KU/L"},
      {"measurement": "state of the treated left paranasal sinuses", "setting": "rhinosinusitis patient; at every post-operative visit, surgery plus irrigation of the left side", "result": "clear of disease"},
      {"measurement": "RAST reading to Alternaria", "setting": "rhinosinusitis patient; before treatment (baseline)", "result": 6.23, "unit": "KU/L"},
      {"measurement": "RAST reading to Alternaria", "setting": "rhinosinusitis patient; only left side operated and irrigated (about 20 mL, 100 mg/L, two to four times daily), eight to ten weeks after symptoms disappeared on the left", "result": 7.16, "unit": "KU/L"},
      {"measurement": "patient state by CT scan", "setting": "rhinosinusitis patient; six months after the last surgery, both sides irrigated", "result": "symptom-free and disease-free"},
      {"measurement": "RAST reading to Alternaria", "setting": "rhinosinusitis patient; six months post-operation, only left side treated, rhinosinusitis diagnosed on the right", "result": 10.0, "unit": "KU/L"},
      {"measurement": "local reaction to nasal irrigations", "setting": "[3]; one patient (third patient)", "result": "burning sensation"},
      {"measurement": "Endoscopy Score A", "setting": "[4]; [7]", "result": "0 (10×) and 3 (5×) and 1 (2×)"},
      {"measurement": "Symptom Score A", "setting": "[4]; [7]", "result": "+1 (6×) and +2 (6×) and 0 (6×) and −2 and 1"},
      {"measurement": "Endoscopy Score B", "setting": "[4]; [8]", "result": "1 (3×) and 2 (5×) and 3 (10×) and 0"},
      {"measurement": "Symptom Score B", "setting": "[4]; [8]", "result": "−1 (14×) and −2 (6×)"},
      {"measurement": "endoscopic evaluation, overall outcome of the twenty patients", "setting": "[4]; nasal irrigations, average about six months", "result": "most patients had an observable improvement"},
      {"measurement": "eosinophil count in mucosal biopsies, all sinuses except the frontal", "setting": "[5]", "result": "< 5", "unit": "%"},
      {"measurement": "eosinophil count in the frontal sinus biopsy", "setting": "[5]; frontal sinus obstructed, presumably not reached", "result": 10, "unit": "%"}
    ]},
    {"smiles": "CCC(C)n1ncn(-c2ccc(N3CCN(c4ccc(OCC5COC(Cn6cncn6)(c6ccc(Cl)cc6Cl)O5)cc4)CC3)cc2)c1=O", "note": "(centres unmarked) [itraconazole]", "values": [
      {"measurement": "symptom score after itraconazole irrigations", "setting": "[3]; about 100 mg per L (10% PEG-400 in sterile water), within two weeks, patients not responding to amphotericin B, one line per patient", "result": "+2 and +1 and 0"},
      {"measurement": "symptom score before itraconazole irrigations", "setting": "[3]; baseline, one line per patient", "result": "−1"},
      {"measurement": "endoscopic score, left side, before", "setting": "[3]; baseline, one patient", "result": 1},
      {"measurement": "endoscopic score, right side, before", "setting": "[3]; baseline, one patient", "result": 1},
      {"measurement": "local reaction to nasal irrigations", "setting": "[3]; human, in vivo", "result": "did not have any adverse local reaction"},
      {"measurement": "endoscopic score, left side, after", "setting": "[3]; [9]", "result": 1},
      {"measurement": "endoscopic score, right side, after", "setting": "[3]; [9]", "result": 0}
    ]}
  ]
}
